Data as given in patent publication US5516790A, “Synthesis and application of alkyl-substituted dibenzofurans as antitumorigenic agents” (Texas A&M University System Technology Licensing Office, priority 1994, dated 1996).
Like-named read-outs stand apart in the source and are kept apart here.

Columns and labels:
female rat uterus = assay type: in vivo, female Sprague/Dawley rats
Experimental: (§1) TCDD or MCDF was co-administered with a second dose of estradiol and the animals were killed 48-hours later. A second group of animals was similarly treated with corn oil, TCDD, MCDF, or TCDD plus MCDF, all administered in corn oil at 10 ml/kg and terminated 72 hours later.
(§2) The animals were terminated by cervical dislocation. Livers were perfused with ice-cold TEDG buffer (10 mM Tris-HCl, 1.5 mM EDTA-4Na, 1 mM dithiothreitol, 10% glycerol (v/v), pH 7.4). Following perfusion in situ, livers were removed, weighed, and homogenized in ice-cold TEDG buffer. Uteri were also removed, weighed, and homogenized in ice-cold buffer. The homogenates were then centrifuged at 800×g […] for 15 minutes and the nuclear pellets were stored at -80° C. The supernatants were further centrifuged at 180,000×g for 1.5 hour. The cytosolic supernatant was also stored at -80° C. Estrogen and progesterone receptor levels were determined within 7 days.

nuclear ER = details: cited from earlier work
52-kDa protein = assay type: cell-based, human; details: MCDF
Experimental: (§3) On day 0, the media was removed and the cells were rinsed two times with PBS. […] The cells were allowed to incubate for 48 h. […] After 6 h, the media was removed, 10 μl was counted and the remaining media was used for analysis of secreted proteins.
(§4) The secreted proteins were analyzed by sodium dodecyl sulfate (SDS) polyacrylamide gel electrophoresis; 30 μl of the media was mixed with an equal volume of buffer containing SDS, β-mercaptoethanol, glycerol, Tris and bromophenol blue. The samples were heated for 2 minutes in a boiling water bath and 50 μl of each sample was loaded onto a 1.5 mm thick 12% acrylamide slab gel (containing 0.075% bisacrylamide) with a 3% stacking gel (containing 0.15% bisacrylamide). The gels were run at […] overnight and processed for fluorography (using Enhance: Dupont) and exposed to Kodak X-OMAT film for 10 days at -80° C. The molecular weights of the proteins were estimated by their mobility relative to a set of standard proteins with known molecular weights.
(§5) The incorporation of ^35 S-methionine into the 34-kDa, 52-kDa and 160-kDa proteins was estimated by scanning the films using a Zeineh Soft Laser Scanning Densitometer (model SLR-20/10) from Biomedical Instruments,Inc. The percentage of the area of the scans due to the particular protein was then compared between the experimental and control samples and the results are presented as means ± SD for at least three samples per treatment group.

34-kDa protein = assay type: cell-based, human; details: for Protein Secretion, 34-kDa: 2880 min
Experimental: as §3, §4, §5

160-kDa protein = assay type: cell-based, human; details: for Protein Secretion, 160-kDa: 2880 min
Experimental: as §3, §4, §5

progesterone receptor = details: rat, in vivo; cited from earlier work
[1] = tested on: MCF-7 human breast cancer cells; details: Biegel, 1990; cited from earlier work
estrogen receptor = details: rat, in vivo; cited from earlier work
[2] = tested on: progesterone receptor (PR); assay type: in vivo, female Sprague/Dawley rats
Experimental: as §1, §2
(§6) Estrogen and progesterone receptor levels were determined by the hydroxyapatite assay as described by Clark et al. (J. Steroid, Biochem., 16, 323-328 (1982)). […] Following the incubations, samples were counted and specific binding was calculated by subtraction of nonspecific from total binding. Assuming one steroid molecule binds to one estrogen/progesterone receptor, the number of moles of receptor can be calculated given the specific activity of the radioligand. […] Significant differences were determined by ANOVA.

estrogen receptor (ER) = assay type: in vivo, female Sprague/Dawley rats
Experimental: as §1, §2, §6

## Cc1cc(Cl)cc2c1oc1cc(Cl)cc(Cl)c12 [MCDF, 6-methyl 1,3,8-trichlorodibenzofuran]
Female rat uterus; MCDF alone
  uterine wet weights compared to corn oil treated animals: significantly decreased
Female rat uterus; co-treated animals
  estradiol induced increase in uterine wet weight: partially inhibited
Female rat uterus; cotreatment with E-2
  Uterine Wet Weight: 0.255 ± 0.031 % body wt
Female rat uterus; rat, in vivo
  Uterine Wet Weight: 0.090 ± 0.113 % body wt
Nuclear ER
  17β-estradiol-induced accumulation of nuclear ER levels in MCF-7 cells: inhibits
52-kDa protein
  17β-estradiol-induced secretion of the 52-kDa protein: inhibits
34-kDa protein; 17β-estradiol + MCDF
  Protein Secretion, 34-kDa: 78 % of Control
34-kDa protein; MCDF
  17β-estradiol-induced secretion of the 34-kDa protein: inhibits
34-kDa protein; MCDF alone (100 nM)
  Protein Secretion, 34-kDa: 80 % of Control
160-kDa protein; 17β-estradiol + MCDF
  Protein Secretion, 160-kDa: 76 % of Control
160-kDa protein; MCDF
  17β-estradiol-induced secretion of the 160-kDa protein: inhibits
160-kDa protein; MCDF alone (100 nM)
  Protein Secretion, 160-kDa: 72 % of Control
Progesterone receptor
  upregulation of uterine nuclear and cytosolic progesterone receptor levels by 17β-estradiol: inhibits
  uterine and hepatic cytosolic and nuclear progesterone receptor levels: dose response decrease
[1]
  17β-estradiol-induced growth of MCF-7 cells: inhibits
Estrogen receptor
  upregulation of uterine nuclear and cytosolic estrogen receptor levels by 17β-estradiol: inhibits
  uterine and hepatic cytosolic and nuclear estrogen receptor levels: dose response decrease
[2]; MCDF 10 μmol/kg
  Hepatic PRc: 74.3 ± 8.1 fmol/mg protein
  Hepatic PRn: 8.9 ± 1.5 fmol/mg protein
  Uterine PRc: 980 ± 34.6 fmol/mg protein
  Uterine PRn: 390 ± 31.6 fmol/mg protein
[2]; MCDF 50 μmol/kg
  Hepatic PRc: 66.0 ± 7.1 fmol/mg protein
  Hepatic PRn: 7.6 ± 1.0 fmol/mg protein
  Uterine PRc: 886 ± 20.1 fmol/mg protein
  Uterine PRn: 290 ± 30.2 fmol/mg protein
[2]; MCDF 100 μmol/kg
  Hepatic PRc: 40.2 ± 3.2 fmol/mg protein
  Hepatic PRn: 6.8 ± 1.0 fmol/mg protein
  Uterine PRc: 811 ± 26.4 fmol/mg protein
  Uterine PRn: 240 ± 26.1 fmol/mg protein
[2]; MCDF 50 and 100 μmol/kg
  constitutive uterine hepatic progesterone receptor levels: dose dependent decrease
[2]; Table 11, cotreatment with E-2
  Hepatic PRc: 108.9 ± 11.1 fmol/mg protein
  Hepatic PRn: 6.4 ± 1.0 fmol/mg protein
  Uterine PRc: 941.2 ± 45.1 fmol/mg protein
  Uterine PRn: 602 ± 11.4 fmol/mg protein
[2]; rat, in vivo
  Hepatic PRc: 60.6 ± 8.4 fmol/mg protein
  Hepatic PRn: 5.1 ± 1.0 fmol/mg protein
  Uterine PRc: 805.3 ± 29.0 fmol/mg protein
  Uterine PRn: 205 ± 10.6 fmol/mg protein
  uterine and hepatic estrogen receptors and progesterone receptor levels, of corresponding levels with 17β-estradiol alone (3rd of four values): 36%
  uterine and hepatic estrogen receptors and progesterone receptor levels, of corresponding levels with 17β-estradiol alone (4th of four values): 75%
Estrogen receptor (ER); MCDF 10 μmol/kg
  Hepatic ERc: 6.6 ± 0.5 fmol/mg protein
  Hepatic ERn: 6.1 ± 1.0 fmol/mg protein
  Uterine ERc: 137.7 ± 11.6 fmol/mg protein
  Uterine ERn: 15.8 ± 1.9 fmol/mg protein
Estrogen receptor (ER); MCDF 50 μmol/kg
  Hepatic ERc: 4.6 ± 0.8 fmol/mg protein
  Hepatic ERn: 3.5 ± 0.6 fmol/mg protein
  Uterine ERc: 110.3 ± 6.6 fmol/mg protein
  Uterine ERn: 13.2 ± 2.1 fmol/mg protein
Estrogen receptor (ER); MCDF 100 μmol/kg
  Hepatic ERc: 3.1 ± 0.3 fmol/mg protein
  Hepatic ERn: 3.1 ± 0.7 fmol/mg protein
  Uterine ERc: 90.2 ± 11.2 fmol/mg protein
  Uterine ERn: 11.5 ± 1.0 fmol/mg protein
Estrogen receptor (ER); MCDF 50 and 100 μmol/kg
  constitutive uterine hepatic estrogen receptors: dose dependent decrease
Estrogen receptor (ER); Table 11, cotreatment with E-2
  Hepatic ERc: 8.1 ± 1.2 fmol/mg protein
  Hepatic ERn: 3.6 ± 0.9 fmol/mg protein
  Uterine ERc: 93.5 ± 4.0 fmol/mg protein
  Uterine ERn: 18.5 ± 1.2 fmol/mg protein
Estrogen receptor (ER); rat, in vivo
  Hepatic ERc: 3.7 ± 1.1
  Hepatic ERn: 3.1 ± 0.2
  Uterine ERc: 67.8 ± 2.5
  Uterine ERn: 13.0 ± 1.1
  uterine and hepatic estrogen receptors and progesterone receptor levels, of corresponding levels with 17β-estradiol alone (1st of four values): 43%
  uterine and hepatic estrogen receptors and progesterone receptor levels, of corresponding levels with 17β-estradiol alone (2nd of four values): 59%
